{
  "source": "ChEMBL document CHEMBL1821675",
  "about": "“The selective P-TEFb inhibitor CAN508 targets angiogenesis” (Eur J Med Chem, 2011)",
  "key": {"[1]": {"target": "Serine/threonine-protein kinase D1 (Homo sapiens) (UniProt Q15139)", "sequence (Q15139 whole entry)": "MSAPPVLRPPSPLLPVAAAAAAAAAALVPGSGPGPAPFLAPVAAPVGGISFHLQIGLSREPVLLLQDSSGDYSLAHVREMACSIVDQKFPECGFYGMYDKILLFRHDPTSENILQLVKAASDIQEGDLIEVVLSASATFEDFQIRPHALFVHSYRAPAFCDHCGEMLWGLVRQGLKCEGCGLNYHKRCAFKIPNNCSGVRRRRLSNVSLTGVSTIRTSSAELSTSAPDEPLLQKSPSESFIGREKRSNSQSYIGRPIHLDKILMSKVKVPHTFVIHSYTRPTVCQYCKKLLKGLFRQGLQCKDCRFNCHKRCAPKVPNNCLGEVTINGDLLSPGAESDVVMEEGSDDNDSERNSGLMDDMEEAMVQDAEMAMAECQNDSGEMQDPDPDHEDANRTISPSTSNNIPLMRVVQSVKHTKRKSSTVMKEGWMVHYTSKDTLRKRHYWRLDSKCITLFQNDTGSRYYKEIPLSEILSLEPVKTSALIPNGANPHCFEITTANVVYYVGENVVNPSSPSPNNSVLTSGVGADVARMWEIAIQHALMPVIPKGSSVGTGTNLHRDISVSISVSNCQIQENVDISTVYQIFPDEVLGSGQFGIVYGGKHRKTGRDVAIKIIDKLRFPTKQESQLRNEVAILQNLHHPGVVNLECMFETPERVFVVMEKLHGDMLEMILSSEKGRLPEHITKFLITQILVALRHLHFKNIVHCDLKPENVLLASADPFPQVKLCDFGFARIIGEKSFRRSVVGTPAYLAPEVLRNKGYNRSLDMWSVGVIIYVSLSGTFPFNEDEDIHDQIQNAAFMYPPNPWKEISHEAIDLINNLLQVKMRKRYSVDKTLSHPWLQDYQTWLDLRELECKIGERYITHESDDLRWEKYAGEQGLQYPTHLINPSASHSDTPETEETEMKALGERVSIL", "test": "Inhibition of PKD1 assessed as residual activity at 10 uM by radioactivity assay in presence of 50 uM ATP"}, "[2]": {"target": "Cyclin-dependent kinase 9 (Homo sapiens) (UniProt P50750)", "test": "Inhibition of CDK9-catalyzed RNA polymerase 2 phosphorylation at Ser2 in human MCF7 cells after 2 hrs by immunoblotting", "type": "cell-based"}, "[3]": {"target": "Serine/threonine-protein kinase PAK 2 (Homo sapiens) (UniProt Q13177)", "test": "Inhibition of PAK2 assessed as residual activity at 10 uM by radioactivity assay in presence of 20 uM ATP"}, "[4]": {"test_system": "Malme-3M", "test": "Cytotoxicity against human MALME-3M cells", "type": "functional"}, "[5]": {"target": "Mitogen-activated protein kinase 9 (Homo sapiens) (UniProt P45984)", "test": "Inhibition of JNK2alpha2 assessed as residual activity at 10 uM by radioactivity assay in presence of 20 uM ATP"}, "[6]": {"target": "Ribosomal protein S6 kinase alpha-5 (Homo sapiens) (UniProt O75582)", "sequence (O75582 whole entry, looked up)": "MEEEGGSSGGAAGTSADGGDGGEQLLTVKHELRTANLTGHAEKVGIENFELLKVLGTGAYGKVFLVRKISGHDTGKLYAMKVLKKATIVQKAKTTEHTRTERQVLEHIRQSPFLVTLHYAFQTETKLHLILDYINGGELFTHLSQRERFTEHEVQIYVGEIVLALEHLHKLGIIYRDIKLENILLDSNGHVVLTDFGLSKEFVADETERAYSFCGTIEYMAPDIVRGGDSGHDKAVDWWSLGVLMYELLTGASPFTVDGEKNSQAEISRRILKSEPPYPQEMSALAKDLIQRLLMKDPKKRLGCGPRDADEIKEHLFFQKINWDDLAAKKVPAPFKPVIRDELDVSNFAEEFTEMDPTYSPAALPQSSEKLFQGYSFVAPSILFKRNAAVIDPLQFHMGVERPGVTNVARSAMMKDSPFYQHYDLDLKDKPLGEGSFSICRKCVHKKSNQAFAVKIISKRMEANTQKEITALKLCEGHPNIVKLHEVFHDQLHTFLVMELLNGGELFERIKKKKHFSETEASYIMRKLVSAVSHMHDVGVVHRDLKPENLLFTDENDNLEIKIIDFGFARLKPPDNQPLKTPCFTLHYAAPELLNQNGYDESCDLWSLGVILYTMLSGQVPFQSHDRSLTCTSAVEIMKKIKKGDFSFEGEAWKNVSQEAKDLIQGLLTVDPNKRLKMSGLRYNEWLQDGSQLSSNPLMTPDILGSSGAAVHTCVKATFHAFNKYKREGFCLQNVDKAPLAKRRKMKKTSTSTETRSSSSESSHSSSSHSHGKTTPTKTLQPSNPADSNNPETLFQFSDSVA", "test": "Inhibition of MSK1 assessed as residual activity at 10 uM by radioactivity assay in presence of 20 uM ATP"}, "[7]": {"test_system": "SN12C", "test": "Cytotoxicity against human SN12C cells", "type": "functional"}, "[8]": {"test_system": "HUVEC", "test": "Antiproliferative activity against HUVEC cells assessed as decrease in cell viability at >50 uM within 72 hrs by calcein AM staining-based fluorescence assay", "conditions": "human"}, "[9]": {"test_system": "HT-29", "test": "Cytotoxicity against human HT-29 cells", "type": "functional"}, "[10]": {"target": "Casein kinase I isoform delta (Homo sapiens) (UniProt P48730)", "test": "Inhibition of CK1delta assessed as residual activity at 10 uM by radioactivity assay in presence of 20 uM ATP"}, "[11]": {"test_system": "HOP-62", "test": "Cytotoxicity against human HOP62 cells", "type": "functional"}, "[12]": {"test_system": "SF-268", "test": "Cytotoxicity against human SF268 cells", "type": "functional"}, "[13]": {"target": "Serine/threonine-protein kinase PLK1 (Homo sapiens) (UniProt P53350)", "test": "Inhibition of PLK1 assessed as residual activity at 10 uM by radioactivity assay in presence of 5 uM ATP"}, "[14]": {"target": "Cyclin-dependent kinase 2/cyclin A (Homo sapiens) (UniProt P24941+P20248+P78396)", "test": "Inhibition of CDK2/cyclin A assessed as residual activity at 10 uM by radioactivity assay in presence of 20 uM ATP", "type": "protein-complex assay"}, "[15]": {"test_system": "CAKI-1", "test": "Cytotoxicity against human Caki1 cells", "type": "functional"}, "[16]": {"target": "Mitogen-activated protein kinase kinase kinase 7 (Homo sapiens) (UniProt O43318)", "test": "Inhibition of TAK1 assessed as residual activity at 10 uM by radioactivity assay in presence of 5 uM ATP"}, "[17]": {"target": "Tyrosine-protein kinase Lck (Homo sapiens) (UniProt P06239)", "test": "Inhibition of Lck assessed as residual activity at 10 uM by radioactivity assay in presence of 50 uM ATP"}, "[18]": {"target": "Ribosomal protein S6 kinase beta-1 (Homo sapiens) (UniProt P23443)", "test": "Inhibition of S6K1 assessed as residual activity at 10 uM by radioactivity assay in presence of 20 uM ATP"}, "[19]": {"test_system": "UO-31", "test": "Cytotoxicity against human UO31 cells", "type": "functional"}, "[20]": {"target": "Serine/threonine-protein kinase pim-3 (Homo sapiens) (UniProt Q86V86)", "test": "Inhibition of PIM3 assessed as residual activity at 10 uM by radioactivity assay in presence of 20 uM ATP"}, "[21]": {"test_system": "MDA-MB-231", "test": "Decrease in VEGF expression in human MDA-MB-231 cells at >10 uM after 24 hrs by sandwich ELISA", "type": "functional, cell-based"}, "[22]": {"target": "Ribosomal protein S6 kinase alpha-3 (Homo sapiens) (UniProt P51812)", "test": "Inhibition of RSK2 assessed as residual activity at 10 uM by radioactivity assay in presence of 50 uM ATP"}, "[23]": {"test": "Inhibition of TNF-alpha-induced Nuclear factor-kappa-B-mediated ICAM-1 expression in human HMEC1 cells after 24 hrs by FACS analysis", "type": "cell-based", "conditions": "HMEC-1, 24 h"}, "[24]": {"target": "Homeodomain-interacting protein kinase 3 (Homo sapiens) (UniProt Q9H422)", "test": "Inhibition of HIPK3 assessed as residual activity at 10 uM by radioactivity assay in presence of 20 uM ATP"}, "[25]": {"test_system": "SR", "test": "Cytotoxicity against human SR cells", "type": "functional"}, "[26]": {"target": "Mitogen-activated protein kinase 15 (Homo sapiens) (UniProt Q8TD08)", "sequence (Q8TD08 whole entry)": "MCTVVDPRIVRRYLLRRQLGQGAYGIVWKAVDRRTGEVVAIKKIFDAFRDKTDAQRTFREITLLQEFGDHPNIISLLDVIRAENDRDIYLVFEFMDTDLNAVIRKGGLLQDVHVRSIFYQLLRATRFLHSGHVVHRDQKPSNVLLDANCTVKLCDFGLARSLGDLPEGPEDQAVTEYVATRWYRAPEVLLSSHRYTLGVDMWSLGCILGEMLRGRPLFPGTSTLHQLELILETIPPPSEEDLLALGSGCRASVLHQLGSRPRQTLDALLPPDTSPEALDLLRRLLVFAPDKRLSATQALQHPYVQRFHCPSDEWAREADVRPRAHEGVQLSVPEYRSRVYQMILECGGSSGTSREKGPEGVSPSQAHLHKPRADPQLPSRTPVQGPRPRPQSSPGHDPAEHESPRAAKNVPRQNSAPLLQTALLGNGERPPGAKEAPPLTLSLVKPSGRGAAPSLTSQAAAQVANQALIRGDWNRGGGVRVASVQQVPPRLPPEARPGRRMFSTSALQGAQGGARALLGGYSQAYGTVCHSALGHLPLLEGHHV", "test": "Inhibition of ERK8 assessed as residual activity at 10 uM by radioactivity assay in presence of 5 uM ATP"}, "[27]": {"test_system": "NCI-H460", "test": "Cytotoxicity against human NCI-H460 cells", "type": "functional"}, "[28]": {"target": "Serine/threonine-protein kinase pim-1 (Homo sapiens) (UniProt P11309)", "test": "Inhibition of PIM1 assessed as residual activity at 10 uM by radioactivity assay in presence of 20 uM ATP"}, "[29]": {"target": "SRSF protein kinase 1 (Homo sapiens) (UniProt Q96SB4)", "sequence (Q96SB4 whole entry)": "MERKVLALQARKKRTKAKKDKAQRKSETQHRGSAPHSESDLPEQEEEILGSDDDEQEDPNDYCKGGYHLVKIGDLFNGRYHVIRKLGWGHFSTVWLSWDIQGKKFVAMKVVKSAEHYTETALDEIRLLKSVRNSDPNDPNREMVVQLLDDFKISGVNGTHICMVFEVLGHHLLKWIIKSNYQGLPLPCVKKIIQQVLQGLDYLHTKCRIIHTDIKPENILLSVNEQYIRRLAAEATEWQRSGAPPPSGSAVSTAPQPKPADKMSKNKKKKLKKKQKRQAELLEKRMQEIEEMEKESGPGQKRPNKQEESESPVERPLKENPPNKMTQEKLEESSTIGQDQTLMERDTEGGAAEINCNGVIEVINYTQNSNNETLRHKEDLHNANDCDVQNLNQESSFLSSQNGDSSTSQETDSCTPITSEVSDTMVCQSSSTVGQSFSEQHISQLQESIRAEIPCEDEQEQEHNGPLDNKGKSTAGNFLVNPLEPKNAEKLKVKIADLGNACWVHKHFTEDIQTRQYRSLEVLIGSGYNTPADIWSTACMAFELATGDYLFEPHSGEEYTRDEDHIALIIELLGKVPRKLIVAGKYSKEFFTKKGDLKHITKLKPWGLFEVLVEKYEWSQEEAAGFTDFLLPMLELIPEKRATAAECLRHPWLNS", "test": "Inhibition of SRPK1 assessed as residual activity at 10 uM by radioactivity assay in presence of 50 uM ATP"}, "[30]": {"target": "Serine/threonine-protein kinase STK11 (Homo sapiens) (UniProt Q15831)", "test": "Inhibition of LKB1 assessed as residual activity at 10 uM by radioactivity assay in presence of 20 uM ATP"}, "[31]": {"target": "Serine/threonine-protein kinase N2 (Homo sapiens) (UniProt Q16513)", "test": "Inhibition of PRK2 assessed as residual activity at 10 uM by radioactivity assay in presence of 5 uM ATP"}, "[32]": {"target": "RAC-beta serine/threonine-protein kinase (Homo sapiens) (UniProt P31751)", "test": "Inhibition of PKBbeta assessed as residual activity at 10 uM by radioactivity assay in presence of 50 uM ATP"}, "[33]": {"target": "Homeodomain-interacting protein kinase 2 (Homo sapiens) (UniProt Q9H2X6)", "test": "Inhibition of HIPK2 assessed as residual activity at 10 uM by radioactivity assay in presence of 5 uM ATP"}, "[34]": {"target": "RAC-alpha serine/threonine-protein kinase (Homo sapiens) (UniProt P31749)", "sequence (P31749 whole entry)": "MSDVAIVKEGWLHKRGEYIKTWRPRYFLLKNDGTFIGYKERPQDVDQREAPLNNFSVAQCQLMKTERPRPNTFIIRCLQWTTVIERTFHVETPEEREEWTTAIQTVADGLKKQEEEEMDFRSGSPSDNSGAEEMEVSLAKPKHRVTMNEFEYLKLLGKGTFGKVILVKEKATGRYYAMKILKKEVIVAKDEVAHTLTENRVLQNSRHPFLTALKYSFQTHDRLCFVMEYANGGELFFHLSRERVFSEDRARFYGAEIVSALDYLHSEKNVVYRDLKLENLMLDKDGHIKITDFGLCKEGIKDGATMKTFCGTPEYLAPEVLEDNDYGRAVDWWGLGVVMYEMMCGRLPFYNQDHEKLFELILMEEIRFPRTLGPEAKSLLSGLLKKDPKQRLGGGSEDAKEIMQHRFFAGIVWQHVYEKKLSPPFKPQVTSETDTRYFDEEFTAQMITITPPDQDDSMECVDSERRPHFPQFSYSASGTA", "test": "Inhibition of PKBalpha assessed as residual activity at 10 uM by radioactivity assay in presence of 5 uM ATP"}, "[35]": {"test_system": "TK-10", "test": "Cytotoxicity against human TK10 cells", "type": "functional"}, "[36]": {"test_system": "SK-OV-3", "test": "Cytotoxicity against human SKOV3 cells", "type": "functional"}, "[37]": {"target": "Dual specificity mitogen-activated protein kinase kinase 1 (Homo sapiens) (UniProt Q02750)", "test": "Inhibition of MKK1 assessed as residual activity at 10 uM by radioactivity assay in presence of 5 uM ATP"}, "[38]": {"test_system": "SW-620", "test": "Cytotoxicity against human SW620 cells", "type": "functional"}, "[39]": {"test_system": "HUVEC", "test": "Antiangiogenic activity against HUVEC cells assessed as inhibition of VEGF-induced cell migration-associated wound closure after 16 hrs by microscopic analysis", "type": "functional, cell-based", "conditions": "Homo sapiens"}, "[40]": {"target": "Insulin-like growth factor 1 receptor (Homo sapiens) (UniProt P08069)", "sequence (P08069 31-736 limits assumed)": "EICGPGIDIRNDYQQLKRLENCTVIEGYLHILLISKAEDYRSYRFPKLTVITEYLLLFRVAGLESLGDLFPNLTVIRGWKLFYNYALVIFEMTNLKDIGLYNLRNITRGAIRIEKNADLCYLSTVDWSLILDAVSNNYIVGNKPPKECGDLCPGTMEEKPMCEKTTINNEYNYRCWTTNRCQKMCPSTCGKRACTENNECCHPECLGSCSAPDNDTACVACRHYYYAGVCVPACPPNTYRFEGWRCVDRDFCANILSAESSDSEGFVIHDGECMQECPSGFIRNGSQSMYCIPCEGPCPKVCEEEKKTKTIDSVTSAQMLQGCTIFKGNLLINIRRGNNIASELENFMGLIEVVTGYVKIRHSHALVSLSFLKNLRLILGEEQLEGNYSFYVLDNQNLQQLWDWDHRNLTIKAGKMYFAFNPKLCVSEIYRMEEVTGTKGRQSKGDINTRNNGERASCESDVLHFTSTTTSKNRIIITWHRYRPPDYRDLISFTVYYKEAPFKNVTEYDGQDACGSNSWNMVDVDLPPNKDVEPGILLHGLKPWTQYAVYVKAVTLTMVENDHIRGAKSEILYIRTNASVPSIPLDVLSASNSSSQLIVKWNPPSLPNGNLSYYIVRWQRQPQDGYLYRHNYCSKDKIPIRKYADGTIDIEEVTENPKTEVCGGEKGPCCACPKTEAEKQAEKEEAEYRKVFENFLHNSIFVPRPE", "sequence (P08069 741-1367 limits assumed)": "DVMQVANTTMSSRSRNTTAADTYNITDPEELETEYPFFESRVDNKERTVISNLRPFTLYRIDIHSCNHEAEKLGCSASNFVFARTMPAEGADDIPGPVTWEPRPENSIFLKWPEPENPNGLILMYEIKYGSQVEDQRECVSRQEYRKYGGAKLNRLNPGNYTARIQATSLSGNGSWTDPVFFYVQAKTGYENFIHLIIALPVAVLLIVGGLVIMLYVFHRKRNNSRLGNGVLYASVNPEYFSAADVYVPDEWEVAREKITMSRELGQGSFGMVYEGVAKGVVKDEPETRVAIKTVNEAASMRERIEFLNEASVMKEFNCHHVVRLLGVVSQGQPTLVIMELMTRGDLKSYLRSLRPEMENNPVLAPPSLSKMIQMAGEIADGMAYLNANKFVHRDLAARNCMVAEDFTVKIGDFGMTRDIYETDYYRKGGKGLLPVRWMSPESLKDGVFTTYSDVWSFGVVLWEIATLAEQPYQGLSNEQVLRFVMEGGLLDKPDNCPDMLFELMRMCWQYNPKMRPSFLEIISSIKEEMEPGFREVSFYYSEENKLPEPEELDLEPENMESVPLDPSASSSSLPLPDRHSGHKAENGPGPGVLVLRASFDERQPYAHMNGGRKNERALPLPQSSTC", "test": "Inhibition of IGF-1R assessed as residual activity at 10 uM by radioactivity assay in presence of 5 uM ATP"}},
  "note": "pIC50: −log10 of the molar value. The source made the active and inactive calls. The rule behind the calls is not given here.",
  "data": [
    {"compound": "Nc1n[nH]c(N)c1/N=N/c1ccc(O)cc1", "values": [
      {"measurement": "Activity", "setting": "[1]", "result": 67, "unit": "%"},
      {"measurement": "inhibition", "setting": "[2]", "result": "Dose-dependent effect"},
      {"measurement": "Activity", "setting": "[3]", "result": 91, "unit": "%"},
      {"measurement": "GI50", "setting": "[4]", "result": 24.5, "unit": "µM"},
      {"measurement": "Activity", "setting": "[5]", "result": 102, "unit": "%"},
      {"measurement": "Activity", "setting": "[6]", "result": 88, "unit": "%"},
      {"measurement": "GI50", "setting": "[7]", "result": 23.3, "unit": "µM"},
      {"measurement": "Activity", "setting": "[8]", "result": "Non-toxic"},
      {"measurement": "GI50", "setting": "[9]", "result": 29.7, "unit": "µM"},
      {"measurement": "Activity", "setting": "[10]", "result": 27, "unit": "%"},
      {"measurement": "GI50", "setting": "[11]", "result": 31.8, "unit": "µM"},
      {"measurement": "GI50", "setting": "[12]", "result": 20.6, "unit": "µM"},
      {"measurement": "Activity", "setting": "[13]", "result": 77, "unit": "%"},
      {"measurement": "Activity", "setting": "[14]", "result": 27, "unit": "%"},
      {"measurement": "GI50", "setting": "[15]", "result": 14.8, "unit": "µM"},
      {"measurement": "Activity", "setting": "[16]", "result": 53, "unit": "%"},
      {"measurement": "Activity", "setting": "[17]", "result": 113, "unit": "%"},
      {"measurement": "Activity", "setting": "[18]", "result": 79, "unit": "%"},
      {"measurement": "GI50", "setting": "[19]", "result": 13.7, "unit": "µM"},
      {"measurement": "Activity", "setting": "[20]", "result": 19, "unit": "%"},
      {"measurement": "Activity", "setting": "[21]", "result": "Active"},
      {"measurement": "Activity", "setting": "[22]", "result": 96, "unit": "%"},
      {"measurement": "pIC50", "setting": "[23]", "result": 4.70},
      {"measurement": "Activity", "setting": "[24]", "result": 84, "unit": "%"},
      {"measurement": "GI50", "setting": "[25]", "result": 10.3, "unit": "µM"},
      {"measurement": "Activity", "setting": "[26]", "result": 17, "unit": "%"},
      {"measurement": "GI50", "setting": "[27]", "result": 25.1, "unit": "µM"},
      {"measurement": "Activity", "setting": "[28]", "result": 40, "unit": "%"},
      {"measurement": "Activity", "setting": "[29]", "result": 85, "unit": "%"},
      {"measurement": "Activity", "setting": "[30]", "result": 37, "unit": "%"},
      {"measurement": "Activity", "setting": "[31]", "result": 30, "unit": "%"},
      {"measurement": "Activity", "setting": "[32]", "result": 56, "unit": "%"},
      {"measurement": "Activity", "setting": "[33]", "result": 44, "unit": "%"},
      {"measurement": "Activity", "setting": "[34]", "result": 100, "unit": "%"},
      {"measurement": "GI50", "setting": "[35]", "result": 25.6, "unit": "µM"},
      {"measurement": "GI50", "setting": "[36]", "result": 49.2, "unit": "µM"},
      {"measurement": "Activity", "setting": "[37]", "result": 60, "unit": "%"},
      {"measurement": "GI50", "setting": "[38]", "result": 26.3, "unit": "µM"},
      {"measurement": "inhibition", "setting": "[39]", "result": "Dose-dependent effect"},
      {"measurement": "Activity", "setting": "[40]", "result": 48, "unit": "%"}
    ]}
  ]
}
